Earlier results, collected in patent publication US20090175934A1, “Extended Release Pharmaceutical Formulation of Venlafaxine and Method of Manufacturing the Same” (Jubilant Organosys Ltd., priority 2006, published 2009).
Where a name gives a salt, the structure may show the parent alone.

How the values were obtained:
patients = conditions: plural daily dosing regimen
[1] = compressed tablets, therapeutic dosing

SMILES: COc1ccc(C(CN(C)C)C2(O)CCCCC2)cc1 (stereo not drawn) [Venlafaxine hydrochloride]
- patients experiencing nausea (patients): about forty five percent
- patients in whom vomiting occurs (patients): about seventeen percent
- time until sub-therapeutic plasma levels are approached following administration [1]: about twelve hours
